ChEMBL document CHEMBL3596195, “Novel cajaninstilbene acid derivatives as antibacterial agents” (Eur J Med Chem, 2015)
Values after ≈ are worked out from the molar mass of the structure shown.

Experiments:
Assay type in all cases: functional
[1] = system: Staphylococcus epidermidis; experiment: Antibacterial activity against Staphylococcus epidermidis ATCC12228 assessed as bacterial growth inhibition after 24 hrs by broth dilution method; details: ATCC12228, 24 h
Staphylococcus aureus [2] = experiment: Antibacterial activity against methicillin-resistant Staphylococcus aureus ATCC62202 assessed as bacterial growth inhibition after 24 hrs by broth dilution method; details: ATCC62202, 24 h
Staphylococcus aureus [3] = experiment: Antibacterial activity against methicillin-resistant Staphylococcus aureus ATCC513045 assessed as bacterial growth inhibition after 24 hrs by broth dilution method; details: ATCC513045, 24 h
Proteus vulgaris = experiment: Antibacterial activity against Proteus vulgaris ATCC49101 assessed as bacterial growth inhibition after 24 hrs by broth dilution method; details: ATCC49101, 24 h
Staphylococcus aureus [4] = experiment: Antibacterial activity against Staphylococcus aureus ATCC25923 assessed as bacterial growth inhibition after 24 hrs by broth dilution method; details: ATCC25923, 24 h
Staphylococcus aureus [5] = experiment: Antibacterial activity against methicillin-resistant Staphylococcus aureus ATCC51033 assessed as bacterial growth inhibition after 24 hrs by broth dilution method; details: ATCC51033, 24 h
Staphylococcus aureus [6] = experiment: Antibacterial activity against methicillin-resistant Staphylococcus aureus ATCC523512 assessed as bacterial growth inhibition after 24 hrs by broth dilution method; details: ATCC523512, 24 h
Staphylococcus aureus [7] = experiment: Antibacterial activity against methicillin-resistant Staphylococcus aureus ATCC425055 assessed as bacterial growth inhibition after 24 hrs by broth dilution method; details: ATCC425055, 24 h
Staphylococcus aureus [8] = experiment: Antibacterial activity against methicillin-resistant Staphylococcus aureus ATCC510019 assessed as bacterial growth inhibition after 24 hrs by broth dilution method; details: ATCC510019, 24 h
Escherichia coli = experiment: Antibacterial activity against Escherichia coli ATCC25922 assessed as bacterial growth inhibition after 24 hrs by broth dilution method; details: ATCC25922, 24 h
Staphylococcus aureus [9] = experiment: Antibacterial activity against methicillin-resistant Staphylococcus aureus ATCC43300 assessed as bacterial growth inhibition after 24 hrs by broth dilution method; details: ATCC43300, 24 h
Staphylococcus aureus [10] = experiment: Antibacterial activity against methicillin-resistant Staphylococcus aureus ATCC52056 assessed as bacterial growth inhibition after 24 hrs by broth dilution method; details: ATCC52056, 24 h
Pseudomonas aeruginosa = experiment: Antibacterial activity against Pseudomonas aeruginosa ATCC2785 assessed as bacterial growth inhibition after 24 hrs by broth dilution method; details: ATCC2785, 24 h
Bacillus subtilis = experiment: Antibacterial activity against Bacillus subtilis ATCC6633 assessed as bacterial growth inhibition after 24 hrs by broth dilution method; details: ATCC6633, 24 h
Staphylococcus aureus [11] = experiment: Antibacterial activity against methicillin-resistant Staphylococcus aureus ATCC515992 assessed as bacterial growth inhibition after 24 hrs by broth dilution method; details: ATCC515992, 24 h

Structure (SMILES) | MIC [1] | MIC (Staphylococcus aureus [2]) | MIC (Staphylococcus aureus [3]) | MIC (Proteus vulgaris) | MIC (Staphylococcus aureus [4]) | MIC (Staphylococcus aureus [5]) | MIC (Staphylococcus aureus [6]) | MIC (Staphylococcus aureus [7]) | MIC (Staphylococcus aureus [8]) | MIC (Escherichia coli) | MIC (Staphylococcus aureus [9]) | MIC (Staphylococcus aureus [10]) | MIC (Pseudomonas aeruginosa) | MIC (Bacillus subtilis) | MIC (Staphylococcus aureus [11])
COC(=O)c1c(O)cc(OC)cc1/C=C/c1ccc(F)cc1 | > 128 µg/mL | > 128 µg/mL | > 128 µg/mL | > 128 µg/mL | > 128 µg/mL | > 128 µg/mL | > 128 µg/mL | > 128 µg/mL | > 128 µg/mL | > 128 µg/mL | > 128 µg/mL | > 128 µg/mL | > 128 µg/mL | > 128 µg/mL | 128 µg/mL (≈ 423 µM)
COC(=O)c1c(O)cc(OC)cc1/C=C/c1ccc(C)cc1 | > 128 µg/mL | > 128 µg/mL | > 128 µg/mL | > 128 µg/mL | > 128 µg/mL | 128 µg/mL (≈ 429 µM) | > 128 µg/mL | 128 µg/mL (≈ 429 µM) | > 128 µg/mL | > 128 µg/mL | > 128 µg/mL | > 128 µg/mL | > 128 µg/mL | > 128 µg/mL | > 128 µg/mL
COC(=O)c1c(O)cc(OC)cc1/C=C/c1cc(OC)c(OC)c(OC)c1 | > 128 µg/mL | > 128 µg/mL | > 128 µg/mL | > 128 µg/mL | > 128 µg/mL | 128 µg/mL (≈ 342 µM) | > 128 µg/mL | > 128 µg/mL | > 128 µg/mL | > 128 µg/mL | > 128 µg/mL | > 128 µg/mL | > 128 µg/mL | > 128 µg/mL | 64 µg/mL (≈ 171 µM)
COC(=O)c1c(/C=C/c2ccccc2)cc(OC)c(CC=C(C)C)c1O | > 128 µg/mL | 128 µg/mL (≈ 363 µM) | 128 µg/mL (≈ 363 µM) | > 128 µg/mL | > 128 µg/mL | > 128 µg/mL | > 128 µg/mL | 128 µg/mL (≈ 363 µM) | > 128 µg/mL | > 128 µg/mL | 128 µg/mL (≈ 363 µM) | > 128 µg/mL | > 128 µg/mL | > 128 µg/mL | > 128 µg/mL
COc1ccc(/C=C/c2cc(OC)cc(O)c2C(=O)O)cc1 | > 128 µg/mL | > 128 µg/mL | > 128 µg/mL | > 128 µg/mL | > 128 µg/mL | > 128 µg/mL | > 128 µg/mL | > 128 µg/mL | > 128 µg/mL | > 128 µg/mL | > 128 µg/mL | > 128 µg/mL | > 128 µg/mL | 64 µg/mL (≈ 213 µM) | > 128 µg/mL
CC1(C)S[C@@H]2[C@H](NC(=O)Cc3ccccc3)C(=O)N2[C@H]1C(=O)O [PENICILLIN G] | 2 µg/mL (≈ 5.98 µM) | 32 µg/mL (≈ 95.7 µM) | 32 µg/mL (≈ 95.7 µM) | > 16 µg/mL | 2 µg/mL (≈ 5.98 µM) | 32 µg/mL (≈ 95.7 µM) | 32 µg/mL (≈ 95.7 µM) | 32 µg/mL (≈ 95.7 µM) | 32 µg/mL (≈ 95.7 µM) | 64 µg/mL (≈ 191 µM) | 32 µg/mL (≈ 95.7 µM) | 64 µg/mL (≈ 191 µM) | 16 µg/mL (≈ 47.8 µM) | 2 µg/mL (≈ 5.98 µM) | 32 µg/mL (≈ 95.7 µM)
COc1cc(/C=C/c2ccc(F)cc2)c(C(=O)O)c(O)c1CC=C(C)C | 4 µg/mL (≈ 11.2 µM) | 1 µg/mL (≈ 2.81 µM) | 8 µg/mL (≈ 22.4 µM) | > 64 µg/mL | 8 µg/mL (≈ 22.4 µM) | 1 µg/mL (≈ 2.81 µM) | 4 µg/mL (≈ 11.2 µM) | 2 µg/mL (≈ 5.61 µM) | 1 µg/mL (≈ 2.81 µM) | > 128 µg/mL | 4 µg/mL (≈ 11.2 µM) | 1 µg/mL (≈ 2.81 µM) | > 64 µg/mL | 1 µg/mL (≈ 2.81 µM) | 8 µg/mL (≈ 22.4 µM)
COC(=O)c1c(O)cc(OC)cc1/C=C/c1ccc(Cl)cc1 | > 128 µg/mL | 128 µg/mL (≈ 402 µM) | > 128 µg/mL | > 128 µg/mL | > 128 µg/mL | > 128 µg/mL | > 128 µg/mL | > 128 µg/mL | > 128 µg/mL | > 128 µg/mL | > 128 µg/mL | > 128 µg/mL | > 128 µg/mL | 128 µg/mL (≈ 402 µM) | > 128 µg/mL
COc1cc(C)c(C(=O)O)c(O)c1CC=C(C)C | 64 µg/mL (≈ 256 µM) | 32 µg/mL (≈ 128 µM) | 32 µg/mL (≈ 128 µM) | > 128 µg/mL | 32 µg/mL (≈ 128 µM) | 32 µg/mL (≈ 128 µM) | 32 µg/mL (≈ 128 µM) | 32 µg/mL (≈ 128 µM) | 64 µg/mL (≈ 256 µM) | > 128 µg/mL | 32 µg/mL (≈ 128 µM) | 64 µg/mL (≈ 256 µM) | > 128 µg/mL | 64 µg/mL (≈ 256 µM) | 32 µg/mL (≈ 128 µM)
COC(=O)c1c(O)cc(OC)cc1/C=C/c1cccc(F)c1 | 128 µg/mL (≈ 423 µM) | > 128 µg/mL | > 128 µg/mL | > 128 µg/mL | > 128 µg/mL | > 128 µg/mL | > 128 µg/mL | > 128 µg/mL | 128 µg/mL (≈ 423 µM) | 128 µg/mL (≈ 423 µM) | > 128 µg/mL | > 128 µg/mL | 128 µg/mL (≈ 423 µM) | 128 µg/mL (≈ 423 µM) | > 128 µg/mL
COC(=O)c1c(O)cc(OC)cc1/C=C/c1ccc(F)cc1F | > 128 µg/mL | > 128 µg/mL | > 128 µg/mL | > 128 µg/mL | > 128 µg/mL | 128 µg/mL (≈ 400 µM) | > 128 µg/mL | 128 µg/mL (≈ 400 µM) | > 128 µg/mL | > 128 µg/mL | 128 µg/mL (≈ 400 µM) | > 128 µg/mL | > 128 µg/mL | > 128 µg/mL | > 128 µg/mL
COC(=O)c1c(O)cc(OC)cc1/C=C/c1ccc(OC)cc1 | > 128 µg/mL | > 128 µg/mL | > 128 µg/mL | > 128 µg/mL | > 128 µg/mL | > 128 µg/mL | > 128 µg/mL | > 128 µg/mL | 128 µg/mL (≈ 407 µM) | > 128 µg/mL | > 128 µg/mL | > 128 µg/mL | 128 µg/mL (≈ 407 µM) | > 128 µg/mL | > 128 µg/mL
COC(=O)c1c(O)cc(OC)cc1/C=C/c1ccc(C(F)(F)F)cc1 | 128 µg/mL (≈ 363 µM) | > 128 µg/mL | 128 µg/mL (≈ 363 µM) | > 128 µg/mL | > 128 µg/mL | > 128 µg/mL | > 128 µg/mL | > 128 µg/mL | > 128 µg/mL | > 128 µg/mL | > 128 µg/mL | > 128 µg/mL | > 128 µg/mL | > 128 µg/mL | > 128 µg/mL
COc1cc(O)c(C(=O)O)c(/C=C/c2cccc(F)c2)c1 | 64 µg/mL (≈ 222 µM) | > 128 µg/mL | > 128 µg/mL | > 128 µg/mL | > 128 µg/mL | > 128 µg/mL | 128 µg/mL (≈ 444 µM) | > 128 µg/mL | > 128 µg/mL | > 128 µg/mL | > 128 µg/mL | > 128 µg/mL | > 128 µg/mL | > 128 µg/mL | > 128 µg/mL
